From patent US20110172217A1, “RING-FUSED MORPHOLINE DERIVATIVE HAVING PI3K-INHIBITING ACTIVITY” (Shionogi & Co., Ltd., priority 2008, published 2011)

What was measured:
CYP1A2 = target: T1, CYP1A2 (Homo sapiens, UniProt P05177); test: CYP inhibition test, O-de-ethylation of 7-ethoxyresorufin; assay type: in vitro ADME; details: pooled human liver microsome; one of 5 kinds
T1 construct: enzyme: pooled human liver microsome 0.2 mg protein/mL; from tissue; host or cells: pooled human liver microsomes
T1 sequence (P05177 1-516): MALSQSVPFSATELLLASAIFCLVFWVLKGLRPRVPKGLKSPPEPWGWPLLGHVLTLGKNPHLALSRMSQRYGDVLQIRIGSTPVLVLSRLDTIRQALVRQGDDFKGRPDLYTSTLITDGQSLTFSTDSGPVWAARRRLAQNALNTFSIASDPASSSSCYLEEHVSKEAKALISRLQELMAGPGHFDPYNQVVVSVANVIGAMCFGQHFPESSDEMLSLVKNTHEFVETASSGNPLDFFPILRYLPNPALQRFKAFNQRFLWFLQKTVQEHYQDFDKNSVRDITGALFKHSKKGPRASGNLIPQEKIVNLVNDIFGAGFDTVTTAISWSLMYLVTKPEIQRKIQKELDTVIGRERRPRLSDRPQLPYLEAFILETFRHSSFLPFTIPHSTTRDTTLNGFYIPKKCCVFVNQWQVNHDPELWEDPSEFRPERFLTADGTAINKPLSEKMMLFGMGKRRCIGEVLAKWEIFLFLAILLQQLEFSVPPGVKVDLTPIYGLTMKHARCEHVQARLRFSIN
Text: (§1) O-de-ethylation of 7-ethoxyresorufin (CYP1A2), methyl-hydroxylation of tolbutamide (CYP2C9), 4′-hydroxylation of mephenyloin (CYP2C19), O-demethylation of dextromethorphan (CYP2D6), and hydroxylation of terfenadine (CYP3A4), which are typical substrate for metabolic reactions of human main CYP5 molecular species (CYP1A2, 2C9, 2C19, 2D6, and 3A4), were adopted as indexes.
(§2) The reaction conditions are as follows: substrate: 0.5 μmol/L of ethoxyresorufin (CYP1A2), 100 μmol/L of tolbutamide (CYP2C9), 50 μmol/L of S-mephenyloin (CYP2C19), […] of dextromethorphan (CYP2D6), and 1 μmol/L of terfenadine (CYP3A4); reaction time; 15 minutes; reaction temperature: 37° C.; enzyme: pooled human liver microsome 0.2 mg protein/mL; test drug concentration: 1, 5, 10, and 20 μmol/L (4 points).
(§3) In a 96-well plate, as a reaction solution, five kinds of substrates, a human liver microsome, and a test drug were added to 50 mmol/L Hepes buffer solution in the aforementioned ratio. A coenzyme NADPH was added to start a metabolic reaction, which is an index. After reacting at 37° C. for 15 minutes, a solution of methanol/acetonitrile (1/1 (v/v)) was added to quench the reaction. After centrifugation at 3000 rpm for 15 minutes, resorufin (CYP1A2 metabolite) in the supernatant was quantitated with a fluorescence multilabel counter, and hydroxylated tolbutamide (CYP2C9 metabolite), 4′-hydroxylated mephenyloin (CYP2C19 metabolite), […], terfenadine in alcohol form (CYP3A4 metabolite) were quantitated with LC/MS/MS.
(§4) The case wherein only DMSO (a solvent which dissolved a drug) was added to a reaction system was defined as a control (100%). When a test drug solution was added, the remaining activity (%) at each concentration was calculated, and then IC50 was calculated with a concentration and an inhibition ratio by an inverse estimation using a logistic model.

CYP2C9 = target: T2, CYP2C9 (Homo sapiens, UniProt P11712); test: CYP inhibition test, methyl-hydroxylation of tolbutamide; assay type: in vitro ADME; details: pooled human liver microsome; one of 5 kinds
T2 construct: enzyme: pooled human liver microsome 0.2 mg protein/mL; from tissue; host or cells: pooled human liver microsomes
T2 sequence (P11712 whole entry): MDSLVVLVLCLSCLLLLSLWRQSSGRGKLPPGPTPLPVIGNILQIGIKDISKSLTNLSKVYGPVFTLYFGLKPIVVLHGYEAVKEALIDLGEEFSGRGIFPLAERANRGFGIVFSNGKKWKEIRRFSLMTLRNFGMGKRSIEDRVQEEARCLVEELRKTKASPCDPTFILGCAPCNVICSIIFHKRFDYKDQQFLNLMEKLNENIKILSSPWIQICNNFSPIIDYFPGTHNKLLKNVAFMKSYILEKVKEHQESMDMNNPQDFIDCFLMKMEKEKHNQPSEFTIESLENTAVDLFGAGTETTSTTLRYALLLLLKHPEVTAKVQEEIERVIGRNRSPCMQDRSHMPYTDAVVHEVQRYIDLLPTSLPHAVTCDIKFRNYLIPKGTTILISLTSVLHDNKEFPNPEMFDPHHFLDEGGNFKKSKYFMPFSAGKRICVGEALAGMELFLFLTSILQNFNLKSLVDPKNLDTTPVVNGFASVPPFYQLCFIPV
Text: as §1, §2, §3, §4

CYP2C19 = target: T3, CYP2C19 (Homo sapiens, UniProt P33261); test: CYP inhibition test, 4′-hydroxylation of mephenyloin; assay type: in vitro ADME; details: pooled human liver microsome; one of 5 kinds
T3 construct: enzyme: pooled human liver microsome 0.2 mg protein/mL; from tissue; host or cells: pooled human liver microsomes
T3 sequence (P33261 whole entry): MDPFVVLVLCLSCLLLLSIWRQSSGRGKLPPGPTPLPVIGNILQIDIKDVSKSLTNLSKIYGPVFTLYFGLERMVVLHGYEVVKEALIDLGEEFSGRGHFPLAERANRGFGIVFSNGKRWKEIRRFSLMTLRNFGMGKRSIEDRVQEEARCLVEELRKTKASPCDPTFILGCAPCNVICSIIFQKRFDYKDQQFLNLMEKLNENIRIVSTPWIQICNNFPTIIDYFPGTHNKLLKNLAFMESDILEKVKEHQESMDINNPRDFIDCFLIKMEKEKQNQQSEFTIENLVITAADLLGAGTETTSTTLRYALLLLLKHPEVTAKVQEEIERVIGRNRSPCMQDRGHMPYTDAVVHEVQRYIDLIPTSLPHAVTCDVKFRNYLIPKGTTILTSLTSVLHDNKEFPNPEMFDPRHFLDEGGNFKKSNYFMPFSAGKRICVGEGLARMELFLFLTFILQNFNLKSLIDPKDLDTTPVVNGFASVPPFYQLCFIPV
Text: as §1, §2, §3, §4

CYP2D6 = target: T4, CYP2D6 (Homo sapiens, UniProt P10635); test: CYP inhibition test, O-demethylation of dextromethorphan; assay type: in vitro ADME; details: pooled human liver microsome; one of 5 kinds
T4 construct: enzyme: pooled human liver microsome 0.2 mg protein/mL; from tissue; host or cells: pooled human liver microsomes
T4 sequence (P10635 whole entry): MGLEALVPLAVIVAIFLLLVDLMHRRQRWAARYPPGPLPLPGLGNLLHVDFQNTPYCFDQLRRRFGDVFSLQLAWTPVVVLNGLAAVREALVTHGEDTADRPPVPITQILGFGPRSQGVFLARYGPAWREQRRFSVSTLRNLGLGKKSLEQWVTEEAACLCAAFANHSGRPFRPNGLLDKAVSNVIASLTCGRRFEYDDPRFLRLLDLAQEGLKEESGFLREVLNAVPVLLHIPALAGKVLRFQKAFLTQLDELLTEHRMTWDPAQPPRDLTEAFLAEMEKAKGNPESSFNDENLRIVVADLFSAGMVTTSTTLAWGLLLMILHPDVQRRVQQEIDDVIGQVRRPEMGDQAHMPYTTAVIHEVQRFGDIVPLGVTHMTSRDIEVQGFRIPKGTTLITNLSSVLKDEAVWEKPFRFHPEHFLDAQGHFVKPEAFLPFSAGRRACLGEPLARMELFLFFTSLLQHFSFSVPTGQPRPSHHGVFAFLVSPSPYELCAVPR
Text: as §1, §2, §3, §4

CYP3A4 = target: T5, CYP3A4 (Homo sapiens, UniProt P08684); test: CYP inhibition test, hydroxylation of terfenadine; assay type: in vitro ADME; details: pooled human liver microsome; one of 5 kinds
T5 construct: enzyme: pooled human liver microsome 0.2 mg protein/mL; from tissue; host or cells: pooled human liver microsomes
T5 sequence (P08684 whole entry): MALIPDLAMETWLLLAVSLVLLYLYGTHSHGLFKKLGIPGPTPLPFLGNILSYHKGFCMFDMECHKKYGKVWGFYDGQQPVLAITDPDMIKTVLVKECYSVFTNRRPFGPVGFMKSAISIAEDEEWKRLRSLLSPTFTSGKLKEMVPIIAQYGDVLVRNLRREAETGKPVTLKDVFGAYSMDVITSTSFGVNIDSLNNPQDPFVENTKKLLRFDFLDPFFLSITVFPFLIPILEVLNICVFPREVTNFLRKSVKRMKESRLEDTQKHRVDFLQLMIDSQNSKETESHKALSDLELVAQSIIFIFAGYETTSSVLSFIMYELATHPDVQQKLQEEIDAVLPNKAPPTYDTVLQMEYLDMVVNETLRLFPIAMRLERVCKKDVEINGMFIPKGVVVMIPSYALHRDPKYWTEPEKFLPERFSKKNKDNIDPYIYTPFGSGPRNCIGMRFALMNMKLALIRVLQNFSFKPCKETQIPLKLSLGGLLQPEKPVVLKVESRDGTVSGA
Text: as §1, §2, §3, §4

[1] = tested on: Salmonella typhimurium TA98 line, TA100 line; test: Fat Test (mutagenicity in Salmonella typhimurium); assay type: cell-based; set-up: key: When the mutagenicity is negative, the compound is shown as (−); When positive, the compound is shown as (+); details: TA98 and TA100 lines, non-metabolism-activation and metabolism-activation conditions
Description: 20 μL of Salmonella enterica subsp. typhimurium (Salmonella typhimurium TA98 line, TA100 line) cryopreserved was inoculated to 10 mL of liquid nutrient medium (2.5% Oxoid nutrient broth No. 2) and then precultured at 37° C. for 10 hours with shaking. Regarding TA98 line, after 9 mL of a bacterial suspension was centrifuged (2000×g, 10 minutes) to remove the culture solution, the bacteria was suspended in 9 mL of Micro F buffer solution (K2HPO4: 3.5 g/L, KH2PO4: 1 g/L, (NH4)2SO4: 1 g/L, tri-sodium citric acid dihydrate: 0.25 g/L, MgSO4.7H2O: 0.1 g/L), and then added to 110 mL of Exposure media (Micro F buffer solution containing biotin: 8 μg/mL, histidine: 0.2 μg/mL, glucose: 8 mg/mL). Regarding TA 100 line, 120 mL of Exposure media was added to 3.16 mL of the bacterial suspension to prepare a test bacterial suspension. 12 μL of a solution of a test substance in DMSO (diluted eight times in a common ratio of 2 from the maximum dose of 50 mg/mL); 12 μL of DMSO as a negative control; 50 μg/mL 4-nitroquinoline-1-oxide solution in DMSO for TA98 line or 0.25 μg/mL 2-(2-furyl)-3-(5-nitro-2-furyl)acrylamide solution in DMSO as a positive control for TA 100 line in the case of a non-metabolism-activation condition; 12 μL of 40 μg/mL 2-aminoanthracene solution in DMSO for TA98 line or 20 μg/mL of 2-aminoanthracene solution in DMSO for TA100 line in the case of a metabolism-activation condition; were each mixed with 588 μL of the test bacterial suspension (in the case of a metabolism activation condition, a mixed solution of 498 μL of the test bacterial suspension and 90 μL S9 mix) and then cultured at 37° C. at 90 minutes with shaking. 460 μL of the bacterial suspension to which a test substance was exposed was mixed with 2300 μL of Indicator media (a Micro F buffer solution containing 8 μg/mL biotin, 0.2 μg/mL histidine, 8 mg/mL glucose, and 37.5 μg/mL bromocresol purple). […] Thus, in 48 wells per dose, the number of the bacteria-proliferation wells in which the color changed to yellow was counted, compared with a group of negative controls, and then evaluated. […]

| IC50 (CYP1A2) [µM] | IC50 (CYP2C9) [µM] | IC50 (CYP2C19) [µM] | IC50 (CYP2D6) [µM] | IC50 (CYP3A4) [µM] | Structure (SMILES) | mutagenicity [1] |
| --- | --- | --- | --- | --- | --- | --- |
| > 20 | > 20 | > 20 | > 20 | > 20 | O=C(O)COc1cccc(Nc2ccc3c(n2)N(C(=O)Nc2ccccc2)CCO3)c1 [Compound I-240] | – |
| – | – | – | – | – | O=C(O)c1ccccc1Nc1ccc2c(n1)N(C(=O)Nc1ccccc1)CCO2 [Compound I-145] | (−) |
